The source of these data is US8383816B2, “Aryl-quinolyl compounds and their use” (Cancer Research Technology Limited, priority 2008, dated 2013).

pIC50: −log10 of the molar value.

Test [1] concerns the target B-RAF (Homo sapiens, UniProt P15056, V600E). Put plainly: DELFIA Kinase Assay. Conditions: 100 μM ATP. The format is biochemical. How it is done: Biological Methods—DELFIA Kinase Assay
Compounds were assessed by a kinase assay performed according to the following protocol.
DELFIA Kinase Buffer (DKB):
DKB1 (DKB with B-RAF and MEK Protein):
Combine 4950 μL of DKB and 50 μL of 2.5 mg/ml GST-MEK stock (to give […] of MEK per 40 μL). Then add 22.5 μL of B-RAF to give ˜0.2 μL of B-RAF per 40 μL.
DKB2 (DKB with MEK Protein):
Combine 4950 μL of DKB and 50 μL of 2.5 mg/ml GST-MEK stock (to give 1 mg of MEK per 40 μL). Use 500 μL of this for the blow out (BO) and the empty vector (EV) control.
100 mM stock, dilute to 500 μM to give 100 μM final concentration in assay.
Inhibitors (Test Compounds):
Phospho-MEK½ CST #9121S diluted 1:1000 in DELFIA assay buffer (AB). Preincubate antibody in the AB for 30 minutes at room temperature prior to use.
Anti-rabbit-Eur labelled secondary Perkin Elmer #AD0105 diluted 1:1000 in DELFIA assay buffer (AB). Preincubate antibody in the AB for 30 minutes at room temperature prior to use. (Primary and secondary antibodies were incubated together.)
1. Preblock wells with 5% milk in TBS for 1 hour.
2. Wash wells with 3× with 200 μL TBS.
3. Plate out 40 μL of DKB1 for all inhibitors (test compounds), DMSO control, and optionally other control compounds.
4. Plate out 40 μL of DKB2 for BO and EV wells.
5. Add inhibitors (test compounds) at 0.5 μL per well according to desired plate layout.
6. Add 0.5 μL DMSO to vehicle control wells.
7. Add 2 μL of B-RAF to BO and EV wells.
8. Pre-incubate with inhibitors (test compounds) for 10 minutes at room temperature with shaking.
9. Add 10 μL of 500 μM ATP stock, in DKB, to give 100 μM assay concentration.
10. Seal plates with TopSeal and incubate at room temperature with shaking for 45 minutes.
11. Wash plates 3× with 200 μL 0.1% Tween20/Water to terminate reaction.
12. Add 50 μL per well of antibody mix and incubate for 1 hour at room temperature with shaking.
13. Wash plates 3× with 200 μL 0.1% Tween20/Water.
14. Add 100 μL DELFIA enhancement solution per well, cover in foil, and incubate at room temperature for 30 minutes with shaking.
15. Read on Victor using Europium protocol.
(§1) Values for the blank (Empty Vector) are subtracted from all values. The DMSO controls are set as 100% activity and assay points (the response) are calculated as a percentage of the DMSO control. Data are plotted using Graphpad Prism software and a non-linear regression line is calculated using a variable slope sigmoidal dose-response equation (Y=Bottom+(Top−Bottom)/(1+10^((LogEC50−X)*HillSlope)) where X is the logarithm of concentration. Y is the response). The IC50 generated by this procedure is the concentration of the drug that produces a percentage control fluorescence value midway between the saturation, and zero-effect plateaus. Three independent assays are usually performed and the mean IC50 is reported.

Test [2] deals with pERK. Description: Cell Based Phospho-ERK Assay. Conditions: 6 h, cells incubated with test compound for 6 hours. How it is done:
Biological Methods—Cell Based Phosho-ERK Assay
Compounds were assessed using a cell-based assay which was performed according to the following protocol.
Plate out 16,000 cells/well in 99 μL medium in a 96-well plate.
1. Add 1 μL inhibitor to the cells […].
2. Incubate the cells with test compound for 6 hours at 37° C.
3. Aspirate off the solution from all of the wells.
4. Fixate the cells with 100 μL 4% formaldehyde/0.25% Triton X-100 PBS per well.
5. Incubate the plate for 1 hour at 4° C.
6. Aspirate off the fixing solution and add 300 μL TBS per well.
7. Leave the plate overnight at 4° C.
1. Wash the plate 2× with 200 μL PBS per well.
2. Block with 100 μL 5% dried milk in TBS.
3. Incubate the plate for 20 minutes at 37° C.
4. Wash the plate 2× with 0.1% tween/H2O.
5. Add 50 μL of 3 μg/mL primary antibody pERK (Sigma M8159), diluted in 5% milk powder/TBS, to each well.
6. Incubate the plate for 2 hours at 37° C.
7. Wash the plate 3× with 0.1% tween/H2O.
8. Add 50 μL of 0.45 μg/mL secondary Europium-labelled anti-mouse antibody (Perkin Elmer) to each well.
9. Incubate the plate for 1 hour at 37° C.
10. Wash the plate 3× with 0.1% tween/H2O.
11. Add 100 μL enhancement solution (Perkin Elmer) to each well.
12. Leave the plate for approximately 10 minutes at room temperature before gently shaking the plate.
13. Read Europium Time Resolved Fluorescence in Victor2.
14. Wash the plate 2× with 0.1% tween/H2O.
15. Measure the protein concentration with BCA (Sigma) by adding 200 μL of solution per well.
16. Incubate the plate for 30 minutes at 37° C.
17. Read absorbance levels at 570 nm in a plate reader.
Note that Europium counts are normalised for protein levels by dividing counts by absorbance.
as §1, with “(no cells)” for “(Empty Vector)”

In test [3] the test system is WM266.4 melanoma cells. Put plainly: SRB Cell Proliferation Assay (SRB GI50). The format is cell-based. The settings on record: Homo sapiens, WM 266-4, 144 h, 6 days growth. Here is the method:
Biological Methods—SRB Cell Proliferation Assay (SRB GI50)
Cultures of WM266.4 melanoma cells are routinely cultured in DMEM/10% foetal bovine serum, at 37° C., in 5% CO2 water saturated atmosphere. Cultures are maintained in exponential growth phase by sub-culturing before having become confluent (3-5 day intervals). Single cell suspensions are prepared by harvesting an 80 cm^2 tissue culture flask with 5 mL commercial trypsin EDTA. After 5 minutes, the detached cells are mixed with 5 mL fully complemented culture medium and centrifugally pelleted (1000 rpm for 7 minutes). After aspirating the supernatant, the cell pellet is re-suspended in 10 mL fresh medium and the cells fully disaggregated by drawing the whole volume up/down 5 times through a 19-gauge needle. The concentration of the cells is determined using a haemocytometer (1/10 dilution). A suitable volume to give at least a 2-fold excess for the number of tests being conducted, typically 100-200 mL, is prepared by diluting the cell suspension to 10,000/mL, and 100 μL/well dispensed into 96 well plates using a programmable 8-channel peristaltic pump, giving 1000 cells/well, leaving column 12 blank. The plates are returned to the incubator for 24 hours to allow the cells to re-attach.
The compounds being tested are prepared at 20 mM in dimethylsulphoxide. Aliquots (200 μL) are diluted into 20 mL culture medium giving 200 μM, and 10 serial dilutions of 3× performed by transferring 5 mL to 10 mL. Aliquots (100 μL) of each dilution are added to the wells, using an 8-channel pipettor, thus performing a final further 2× dilution, and giving doses ranging from 100 μM to 0.005 μM. Column 11 receives plain culture medium only. Each compound is tested in quadruplicate, each replicate being the average of four wells, and two plates per compound.
After a further 6 days growth, the plates are emptied, and the cells are fixed in 10% trichloroacteic acid for 10 minutes on ice. After thorough rinsing in running tap water, the plates are dried, and stained by adding 50 μL of a solution of 0.1% sulphorhodamine-B in 1% acetic acid, for 10 minutes at room temperature. The stain is poured out and the plates thoroughly rinsed under a stream of 1% acetic acid, thus removing unbound stain, and dried. The bound stain is taken into solution by addition of 150 μL Tris buffer pH 8, followed by 10 minutes on a plate-shaker (approximately 500 rpm). The absorbance at 540 nm in each well (being proportional to the number of cells present) is determined using a plate reader.
After averaging the results in rows A-D and E-H, the blank value (row 12) is subtracted, and results expressed as percentage of the untreated value (row 11). […] The GI50 generated by this procedure is the concentration of the drug that produces a percentage control A540 midway between the saturation, and zero-effect plateaus.

Sequence of B-RAF (P15056 whole entry V600E): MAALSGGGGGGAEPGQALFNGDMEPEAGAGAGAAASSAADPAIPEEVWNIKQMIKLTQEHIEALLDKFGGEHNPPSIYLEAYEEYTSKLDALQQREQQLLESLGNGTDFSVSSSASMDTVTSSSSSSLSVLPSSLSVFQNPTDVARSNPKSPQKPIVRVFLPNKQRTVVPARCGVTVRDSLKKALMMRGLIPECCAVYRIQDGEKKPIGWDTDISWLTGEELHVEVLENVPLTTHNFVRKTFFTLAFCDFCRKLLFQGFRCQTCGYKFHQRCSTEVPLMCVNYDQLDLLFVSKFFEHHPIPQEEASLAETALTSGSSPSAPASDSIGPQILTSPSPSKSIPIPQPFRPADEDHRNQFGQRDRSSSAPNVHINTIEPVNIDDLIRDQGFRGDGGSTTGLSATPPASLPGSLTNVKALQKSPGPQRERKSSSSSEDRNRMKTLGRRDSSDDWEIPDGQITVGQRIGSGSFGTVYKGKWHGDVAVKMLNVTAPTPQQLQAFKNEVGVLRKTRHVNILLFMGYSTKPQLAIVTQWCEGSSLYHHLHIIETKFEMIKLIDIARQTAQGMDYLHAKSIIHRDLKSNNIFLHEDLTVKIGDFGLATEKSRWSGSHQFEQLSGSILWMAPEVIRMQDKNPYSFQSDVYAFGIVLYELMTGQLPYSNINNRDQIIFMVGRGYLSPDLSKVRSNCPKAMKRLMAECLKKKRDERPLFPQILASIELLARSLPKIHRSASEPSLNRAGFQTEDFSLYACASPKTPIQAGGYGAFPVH

As a reminder, the pIC50 is −log10 of the IC50, conventionally taken in molar units. Read a low pIC50 as a large IC50. As a reminder, the GI50 is the concentration at which growth is held to half of that of the control. The low end stands for greater sensitivity of the cells, the high end for lower sensitivity of the cells. For the molecule `O=C(Nc1cccc(C(F)(F)F)c1)Nc1ccc(Oc2ccnc3[nH]c(=O)[nH]c23)c2cccnc12` [AA-008, 4-[(5-Oxy-quinolinyl-8-amino)carbonylamino-(3-trifluoromethyl-phenyl)]-pyridin-5,6-imidazolone], the pIC50 is not below 6.00 in test [1] and not below 5.00 in test [2]. The GI50 in test [3] is not above 10 µM.

Take `C=CCn1nc(C(C)(C)C)cc1NC(=O)Nc1ccc(Oc2ccnc3[nH]c(=O)cnc23)c2cccnc12` [BB-013]: the values for the pIC50 in test [1] and in test [2] were not below 6.00 and not below 5.00, respectively. For the same molecule, in test [3], the GI50 is not above 10 µM.

Turning to `Cn1c(=O)[nH]c2c(Oc3ccc(NC(=O)Nc4ccc(Cl)c(C(F)(F)F)c4)c4ncccc34)ccnc21` [AA-014, 5-[(8-Amino-quinolinyl-5-oxy)carbonylamino-3-(2-trifluoromethyl-3-chloro-phenyl)]-pyridin-[2,3]-N-methylimidazol-2-one], the figures for the pIC50 in test [1] and in test [2] were not below 6.00 and not below 5.00, respectively. In addition, the GI50 in test [3] is not above 10 µM.

As for `Cc1nc2c(Oc3ccc(NC(=O)Nc4cc(C(F)(F)F)ccc4F)c4ncccc34)ccnc2[nH]c1=O` [BB-001, 5-[(8-Amino-quinolinyl-5-oxy)carbonylamino-(2-fluoro-5-trifloromethylphenyl)]-pyridin-[2,3]-3-methylpyrazin-2-one], the figures for the negative logarithm of the IC50 (pIC50) in test [1] and in test [2] were not below 6.00 and not below 5.00, respectively. Further, the GI50 in test [3] was not above 10 µM.
